Measured values taken from patent publication US7129352B2, “Crystalline salts of 7-′4-(4-fluorophenyl) -6-isopropyl-2-′methyl (methylsulfonyl) amino!pyrimidin-5-yl!- (3R, 5S) -3, 5-dihydroxyhept-6-enoic acid” (AstraZeneca AB, priority 2000, dated 2006).

How the values were obtained:
[1] = hygroscopicity of the crystalline salt; format: physicochemical
[2] = solubility profile of the crystalline salt; format: physicochemical

Substance: tris(hydroxymethyl)methylammonium (E)-7-[4-(4-fluorophenyl)-6-isopropyl-2-[methyl(methylsulfonyl)amino]pyrimidin-5-yl]-(3R,5S)-3,5-dihydroxyhept-6-enoate [Example 2]
- hygroscopicity [1]: non-hygroscopic
- solubility profile [2]: advantageous solubility profile
